Experimental data: publication PMC10041525, “New Dual Inhibitors of Bacterial Topoisomerases with Broad-Spectrum Antibacterial Activity and In Vivo Efficacy against Vancomycin-Intermediate Staphylococcus aureus” (Journal of Medicinal Chemistry, 2023)
Values after ≈ are worked out from the molar mass of the structure shown. Where two headings read alike, the source gives them in different places.

Legend:
Type in all cases: cell-based
[1] = tested on: 100 A. baumannii strains (50 MDR, 50 non-MDR); experiment: MIC broth microdilution at IHMA Europe, panel of 100 strains; conditions: Acinetobacter baumannii; for MIC50: read-out: MIC 50
E. coli ATCC 35218 = experiment: IHMA QC MIC; conditions: Escherichia coli, ATCC35218; read-out: MIC (QC, repeated tests)
Experimental: (§1) The panel of Hungarian clinical isolates and controls measured following the same method as detailed above, and albeit measurements were carried out in 384-well microtiter plates (Corning Inc.).

A. baumannii ATCC 17978 = experiment: IHMA QC MIC; conditions: Acinetobacter baumannii, ATCC17978; read-out: MIC (QC, repeated tests)
Experimental: as §1

In the case of `COc1c(N2C[C@@H]3CCCN[C@@H]3C2)c(F)cc2c(=O)c(C(=O)O)cn(C3CC3)c12` [Moxifloxacin, moxifloxacin], the MIC ([1]; A. baumannii IHMA 1769393, Lithuania 2018, Non-MDR, read-out: MIC) is reported as ≤ 0.5 µg/mL, the MIC ([1]; A. baumannii IHMA 1769782, Israel 2018, MDR, read-out: MIC) is reported as 8 µg/mL (≈ 19.9 µM) and the MIC ([1]; A. baumannii IHMA 1769910, Israel 2018, Non-MDR, read-out: MIC) is reported as ≤ 0.5 µg/mL. For the same compound, the MIC ([1]; A. baumannii IHMA 1790317, Czech Republic 2018, Non-MDR, read-out: MIC) was ≤ 0.5 µg/mL, the MIC ([1]; A. baumannii IHMA 1790916, Romania 2018, Non-MDR, read-out: MIC) was ≤ 0.5 µg/mL and the MIC ([1]; A. baumannii IHMA 1791877, Israel 2018, MDR, read-out: MIC) was 8 µg/mL (≈ 19.9 µM). For the same compound, the MIC ([1]; A. baumannii IHMA 1792961, Jordan 2018, MDR, read-out: MIC) was 8 µg/mL (≈ 19.9 µM), the MIC ([1]; A. baumannii IHMA 1795669, Tunisia 2018, Non-MDR, read-out: MIC) was ≤ 0.5 µg/mL and the MIC ([1]; A. baumannii IHMA 1815856, Israel 2018, MDR, read-out: MIC) was 8 µg/mL (≈ 19.9 µM). For the same compound, the MIC ([1]; A. baumannii IHMA 1821468, South Africa 2018, Non-MDR, read-out: MIC) was ≤ 0.5 µg/mL, the MIC ([1]; A. baumannii IHMA 1829500, Georgia 2018, Non-MDR, read-out: MIC) was ≤ 0.5 µg/mL and the MIC ([1]; A. baumannii IHMA 1830924, United Kingdom 2018, Non-MDR, read-out: MIC) was ≤ 0.5 µg/mL. The MIC ([1]; A. baumannii IHMA 1849829, Kuwait 2018, Non-MDR, read-out: MIC) was ≤ 0.5 µg/mL, the MIC ([1]; A. baumannii IHMA 1857118, Slovenia 2018, Non-MDR, read-out: MIC) was ≤ 0.5 µg/mL and the MIC ([1]; A. baumannii IHMA 1863631, France 2018, Non-MDR, read-out: MIC) was ≤ 0.5 µg/mL. For the same compound, the MIC ([1]; A. baumannii IHMA 1870054, United States 2018, Non-MDR, read-out: MIC) was ≤ 0.5 µg/mL, the MIC ([1]; A. baumannii IHMA 1884428, Italy 2018, Non-MDR, read-out: MIC) was ≤ 0.5 µg/mL and the MIC ([1]; A. baumannii IHMA 1884990, Germany 2018, Non-MDR, read-out: MIC) was ≤ 0.5 µg/mL. The MIC ([1]; A. baumannii IHMA 1900538, Turkey 2018, Non-MDR, read-out: MIC) was ≤ 0.5 µg/mL, the MIC ([1]; A. baumannii IHMA 1913773, Kenya 2018, Non-MDR, read-out: MIC) was ≤ 0.5 µg/mL and the MIC ([1]; A. baumannii IHMA 1926285, Qatar 2018, Non-MDR, read-out: MIC) was ≤ 0.5 µg/mL. For the same compound, the MIC ([1]; A. baumannii IHMA 1957343, Portugal 2019, Non-MDR, read-out: MIC) was ≤ 0.5 µg/mL, the MIC ([1]; A. baumannii IHMA 1967860, Spain 2019, Non-MDR, read-out: MIC) was ≤ 0.5 µg/mL and the MIC ([1]; A. baumannii IHMA 1975075, Israel 2019, Non-MDR, read-out: MIC) was ≤ 0.5 µg/mL. For the same compound, the MIC ([1]; A. baumannii IHMA 1977077, Kuwait 2019, Non-MDR, read-out: MIC) was ≤ 0.5 µg/mL, the MIC ([1]; A. baumannii IHMA 1983151, Greece 2019, MDR, read-out: MIC) was 8 µg/mL (≈ 19.9 µM) and the MIC ([1]; A. baumannii IHMA 1986678, Turkey 2019, Non-MDR, read-out: MIC) was ≤ 0.5 µg/mL. The MIC ([1]; A. baumannii IHMA 1987162, Croatia 2019, MDR, read-out: MIC) was 8 µg/mL (≈ 19.9 µM), the MIC ([1]; A. baumannii IHMA 1993615, Turkey 2019, MDR, read-out: MIC) was 8 µg/mL (≈ 19.9 µM) and the MIC ([1]; A. baumannii IHMA 1995161, Czech Republic 2019, Non-MDR, read-out: MIC) was ≤ 0.5 µg/mL. For the same compound, the MIC ([1]; A. baumannii IHMA 1997936, Morocco 2019, Non-MDR, read-out: MIC) was ≤ 0.5 µg/mL, the MIC ([1]; A. baumannii IHMA 1999178, Belgium 2019, Non-MDR, read-out: MIC) was ≤ 0.5 µg/mL and the MIC ([1]; A. baumannii IHMA 2014367, Jordan 2019, Non-MDR, read-out: MIC) was ≤ 0.5 µg/mL. For the same compound, the MIC ([1]; A. baumannii IHMA 2014931, South Africa 2019, Non-MDR, read-out: MIC) was ≤ 0.5 µg/mL, the MIC ([1]; A. baumannii IHMA 2019315, Romania 2019, Non-MDR, read-out: MIC) was ≤ 0.5 µg/mL and the MIC ([1]; A. baumannii IHMA 2031511, Greece 2019, Non-MDR, read-out: MIC) was ≤ 0.5 µg/mL. The MIC ([1]; A. baumannii IHMA 2031524, Greece 2019, MDR, read-out: MIC) was 4 µg/mL (≈ 9.96 µM), the MIC ([1]; A. baumannii IHMA 2034657, Tunisia 2019, Non-MDR, read-out: MIC) was ≤ 0.5 µg/mL and the MIC ([1]; A. baumannii IHMA 2035134, Serbia 2019, Non-MDR, read-out: MIC) was ≤ 0.5 µg/mL. The MIC ([1]; A. baumannii IHMA 2038976, Hungary 2019, MDR, read-out: MIC) was 8 µg/mL (≈ 19.9 µM), the MIC ([1]; A. baumannii IHMA 2058329, Slovenia 2019, Non-MDR, read-out: MIC) was ≤ 0.5 µg/mL and the MIC ([1]; A. baumannii IHMA 2065587, France 2019, Non-MDR, read-out: MIC) was ≤ 0.5 µg/mL. For the same compound, the MIC ([1]; A. baumannii IHMA 2099294, United Kingdom 2019, Non-MDR, read-out: MIC) was ≤ 0.5 µg/mL, the MIC ([1]; A. baumannii IHMA 2129256, Qatar 2019, Non-MDR, read-out: MIC) was ≤ 0.5 µg/mL and the MIC ([1]; A. baumannii IHMA 2157614, Australia 2020, Non-MDR, read-out: MIC) was ≤ 0.5 µg/mL. The MIC ([1]; A. baumannii IHMA 2178574, Ukraine 2020, Non-MDR, read-out: MIC) was ≤ 0.5 µg/mL, the MIC ([1]; A. baumannii IHMA 2180134, Malaysia 2020, Non-MDR, read-out: MIC) was ≤ 0.5 µg/mL and the MIC ([1]; A. baumannii IHMA 2180142, Malaysia 2020, MDR, read-out: MIC) was 8 µg/mL (≈ 19.9 µM). For the same compound, the MIC ([1]; A. baumannii IHMA 2181370, Morocco 2020, MDR, read-out: MIC) was 8 µg/mL (≈ 19.9 µM), the MIC ([1]; A. baumannii IHMA 2183729, Argentina 2020, MDR, read-out: MIC) was 4 µg/mL (≈ 9.96 µM) and the MIC ([1]; A. baumannii IHMA 2183849, Argentina 2020, Non-MDR, read-out: MIC) was ≤ 0.5 µg/mL. For the same compound, the MIC ([1]; A. baumannii IHMA 2184382, Japan 2020, Non-MDR, read-out: MIC) was ≤ 0.5 µg/mL, the MIC ([1]; A. baumannii IHMA 2193375, Venezuela 2020, MDR, read-out: MIC) was 8 µg/mL (≈ 19.9 µM) and the MIC ([1]; A. baumannii IHMA 2193485, Venezuela 2020, Non-MDR, read-out: MIC) was ≤ 0.5 µg/mL. The MIC ([1]; A. baumannii IHMA 2193607, Venezuela 2020, MDR, read-out: MIC) was 4 µg/mL (≈ 9.96 µM), the MIC ([1]; A. baumannii IHMA 2195460, Italy 2020, MDR, read-out: MIC) was 8 µg/mL (≈ 19.9 µM) and the MIC ([1]; A. baumannii IHMA 2196959, South Africa 2020, MDR, read-out: MIC) was 8 µg/mL (≈ 19.9 µM). The MIC ([1]; A. baumannii IHMA 2206507, Taiwan 2020, Non-MDR, read-out: MIC) was ≤ 0.5 µg/mL, the MIC ([1]; A. baumannii IHMA 2212575, Hungary 2020, Non-MDR, read-out: MIC) was ≤ 0.5 µg/mL and the MIC ([1]; A. baumannii IHMA 2215307, Hong Kong 2020, Non-MDR, read-out: MIC) was ≤ 0.5 µg/mL. For the same compound, the MIC ([1]; A. baumannii IHMA 2216586, Taiwan 2020, MDR, read-out: MIC) was 8 µg/mL (≈ 19.9 µM), the MIC ([1]; A. baumannii IHMA 2223200, Colombia 2020, Non-MDR, read-out: MIC) was ≤ 0.5 µg/mL and the MIC ([1]; A. baumannii IHMA 2224303, Panama 2020, Non-MDR, read-out: MIC) was ≤ 0.5 µg/mL. The MIC ([1]; A. baumannii IHMA 2233099, Guatemala 2020, MDR, read-out: MIC) was 8 µg/mL (≈ 19.9 µM), the MIC ([1]; A. baumannii IHMA 2233548, Kazakhstan 2020, Non-MDR, read-out: MIC) was ≤ 0.5 µg/mL and the MIC ([1]; A. baumannii IHMA 2238964, Thailand 2020, MDR, read-out: MIC) was 8 µg/mL (≈ 19.9 µM). For the same compound, the MIC ([1]; A. baumannii IHMA 2239052, Thailand 2020, Non-MDR, read-out: MIC) was ≤ 0.5 µg/mL, the MIC ([1]; A. baumannii IHMA 2261047, Belgium 2020, MDR, read-out: MIC) was 8 µg/mL (≈ 19.9 µM) and the MIC ([1]; A. baumannii IHMA 2261633, Canada 2020, Non-MDR, read-out: MIC) was ≤ 0.5 µg/mL. The MIC ([1]; A. baumannii IHMA 2274234, South Africa 2020, MDR, read-out: MIC) was 8 µg/mL (≈ 19.9 µM), the MIC ([1]; A. baumannii IHMA 2275237, Chile 2020, Non-MDR, read-out: MIC) was ≤ 0.5 µg/mL and the MIC ([1]; MDR n = 50, read-out: MIN (minimum MIC)) was 4 µg/mL (≈ 9.96 µM). The MIC50 ([1]; all isolates n = 100) was ≤ 0.5 µg/mL, the MIC ([1]; all isolates n = 100, read-out: MIN (minimum MIC)) was ≤ 0.5 µg/mL and the MIC ([1]; non-MDR n = 50, read-out: MAX (maximum MIC)) was ≤ 0.5 µg/mL. The MIC50 ([1]; non-MDR n = 50) was ≤ 0.5 µg/mL, the MIC90 ([1]; non-MDR n = 50, read-out: MIC 90) was ≤ 0.5 µg/mL and the MIC ([1]; non-MDR n = 50, read-out: MIN (minimum MIC)) was ≤ 0.5 µg/mL. For the same compound, the MIC (E. coli ATCC 35218) was ≤ 0.5 µg/mL and the MIC (A. baumannii ATCC 17978) was ≤ 0.5 µg/mL.
